Entries after “also recorded” stand apart in the source; their conditions may differ. Read-outs that look alike come from different tables or passages of the source.

A word on the IC50: it is the midpoint of a concentration-inhibition curve.

The test system of series [1] is CD4+ T cells. Description: Example 5: lactate production analysis. It is filed as cell-based, human. The method, then:
Subsequently, media of the treated samples were tested for production of L-lactated using a Glycolysis Cell-Based Assay Kit (Cayman Chemical). This test measures the quantity of formazan, an artificial chromogenic dye that results from the reduction of tetrazolium salts in the presence of NADH in the culture media. Colored formazan absorbs between 490 and 520 nm and can be detected by a plate reader. Since lactate dehydrogenase catalyzes the reaction between NAD+ and lactate, yielding pyruvate and NADH, which directly reduces the tetrazolium salt, the quantity of formazan produced is proportional to the quantity of L-lactate in the culture medium, and is thus an indirect measurement of glycolysis. In order to determine specific L-Lactate concentration, a standard curve was obtained analyzing absorbance of known concentration of L-lactate as indicated in the manufacturer's protocol.

For series [2], the system named is latent HIV-GFP reporter virus in resting CD4+ T cells from human tonsil. Description: Example 6: lymphoid tissue model of HIV latency, HIV-GFP reporter, flow cytometry. It counts as cell-based. Particulars: 48 hours; for latency reversal by first-generation LRAs: bryostatin-1 10 nM, JQ1 100 nM, panobinostat 50 nM.
Series [3] concerns tonsil CD4+ T cells. Kind of series: Example 6: cell viability in tonsil CD4+ T cell cultures, Cell-Titer Blue. Particulars: SB216763 10-1,000 nM, PMA 200 nM, panobinostat 50 nM; 48 hours.
For series [4], the system named is NF-κB (p65). Kind of series: Example 5: NF-κB p65 nuclear translocation, western blot of nuclear extracts. It counts as cell-based, human. Particulars: 250 nM inhibitor with 1 μM tideglusib. On the technique in general: In western blotting, separated proteins are transferred to a membrane and probed.
Series [5] has as its system CD4+ T cells. Description: Example 5: GLUT1 surface expression, flow cytometry. It is filed as cell-based, human. The note with it: 2 or 24 hours; 1 μM tideglusib; CD4+ T cells of three HIV-negative donors. The method, then: (§1) Freshly isolated PBMCs or CD4^+ T cells were stained for viability, using the fixable viability dye Zombie violet (1:50, Biolegend) according to the manufacturer's recommendation. Surface staining was performed with the following antibodies at 1:100 dilutions: CD3-PE-Cy7, CD4-APC-Cy7, CD69-FITC, CD25-PE (all 1:100, Biolegend), and Glut-1-Ax647 (BD Bioscience, 566580) in staining buffer for 20 min on ice and cells were fixed in 1% PFA-containing PBS. All flow analysis was performed on the LSRII (BD Biosciences) using FlowJo software (v.10.4.2). Color compensations were performed using single-stained samples for each of the fluorochromes used. Data were analyzed using FlowJo software (TreeStar, San Carlos, Calif.).
Changes to the metabolism of resting CD4^+ T-cells by tideglusib were studied. […] […].
(A flow cytometer gives signals particle by particle.)

The subject of series [6] is CD4+ T cells. Kind of series: Example 5: surface expression of activation markers CD69 and CD25, flow cytometry. It counts as cell-based, human. The note with it: 48 hours. The procedure:
as §1

For series [7], the system named is CD4+ T cells. Kind of series: Example 5: CD4+ T cell viability, Cell Titer Blue assay. It counts as cell-based, human. The note with it: 48 hours; for CD4+ T-cell viability: SB-216763 and tideglusib 10/100/1000 nM, bryostatin-1 10 nM. The method, then:
25 μl from each well/treatment were incubated with Cell Titer Blue reagent (Promega) for 3 to 4 hours at 37° C. The assay is based on the ability of living cells to convert a redox dye (resazurin) into a fluorescent end product (resorufin). Colorimetric analysis of treated cells was done with a Perkin Elmer EnSpire 2300 Multimode plate reader set to detect fluorescence (Ex:579 nm/Em:584 nm).

Series [8] has as its system latent HIV in CD4+ T cells of HIV-infected patients on suppressive anti-retroviral therapy. Description: Example 7: reversal of HIV latency in patient CD4+ T cells, extracellular viral RNA by digital droplet PCR.
For series [9], the system named is latent HIV-1 in blood CD4+ T cells from infected individuals on suppressive ART. It counts as cell-based.
In series [10] the test system is CD4+ T cells. Kind of series: Example 5: cytokines release assay (V-PLEX pro-inflammatory panel). The note with it: 48 hours; culture supernatant of CD4+ T cells. It counts as cell-based, human. The method, then: Supernatant was collected from the treated cell cultures described above and stored at −80° C. for later analysis. Supernatant cytokine levels were determined using a V-PLEX Proinflammatory Panel 1 (human) Kit (#K15049D-1) and a V-PLEX IL-17A Gen. B (human) (#K151WMD) from Meso Scale Discovery, following the manufacturer's protocol. The assay was done on undiluted supernatant samples in order to increase the sensitivity of the assay.

For series [11], the system named is GSK-3. The note with it: cited from earlier work.
The test system of series [12] is patient CD4+ T cells. The note with it: human, 48 h.
For series [13], the system named is patient-derived CD4+ T cells. The note with it: as shown in PCT/US2016/64614; cited from earlier work.
Series [14] has as its system patient-derived CD4+ T cells. The note with it: as shown in PCT/US2016/64614; cited from earlier work. This is another data set of the same source.
Series [15] relates to NK cells. Kind of series: Example 5: NK cell viability and cytotoxic effector functions. It counts as cell-based, human. The note with it: 48 hours; 50 nM. The method, then: Density centrifugation using a Ficoll-Hypaqua gradient was performed to purify PBMCs from continuous-flow centrifugation leukapheresis product. Subsequently, cells were plated in 96-well U-bottom plated in complete RPMI, which was supplemented with 10 ng/ml recombinant IL-15 (R&D systems), treated with LRAs or vehicle controls (DMSO) and incubated at 37° C., 5% CO2 for 48 h. To assay NK cell functionality, cells were analyzed by flow cytometry. Briefly, 1×10^6 cells/200 ul were stained with FITC anti-CD107 antibodies (1:50, BD Biosciences), mixed with 1×10^5 K562 cells and incubated at 37° C., 5% CO2 for 1 h. Then, in order to enhance intracellular cytokine staining, protein transport was blocked with Brefeldin A (Sigma-Aldrich) and golgi stop (BD Biosciences) according to the manufacturer instructions and the cells were incubated at 37° C., 5% CO2 for another 5 h. Afterwards, cells were spun down (5 min, 330×g, RT), the supernatant was removed and the cells were stained using Zombie violet (1:50, Biolegend) according to the manufacturer protocol. Subsequently, cells were stained for surface proteins staining with the following antibodies: APC/Cy7 anti CD3 (1:100, Biolegend), APC anti CD14 (1:100, Biolegend), APC anti CD19 (1:100, Biolegend), PE/Cy7 anti CD56 (1:100, BD Biosciences), Alexa Fluor 700 anti CD16 (1:100, Biolegend), PE anti CD7 (1:50, Thermo Fisher Scientific) for 15 min at room temperature. Next, cells were permeabilized and fixed using the Foxp3/Transcription Factor Fixation/Permeabilization Concentrate and Diluent kit (eBioscience) and stained intracellularly with PerCP/Cy5 anti IFN-γ (1:50, BD Bioscience) in FOXP3 perm/wash buffer for 1 h at 4° C. Finally, cells were washed and fixed in 1% paraformaldehyde/PBS, and subjected to flow cytometry analysis on a LSRII (BD Biosciences). Data were obtained using FlowJo software (Treestar). Samples were gated for singlets, live, CD3 negative, CD14/CD19 negative and CD7 positive cells as previously described (York, Milush). CD16high/CD56dim, CD16dim/CD56high cells were considered for analysis of IFN-γ and CD107a positivity. All gates were defined, based on fluorescence minus one (FMO) samples.

Series [16] relates to CD8+ T cells. Kind of series: Example 5: CD8 T-cell viability and cytotoxic effector functions. It counts as cell-based, human. Particulars: 48 hours; 50 nM. The method, then: After drug treatment, human PBMCs were cultured in complete RPMI in the presence of CD107a-BV650 (1:50, 328637, BioLegend) or CD107a-FITC antibodies (1:50, 555800, BD Bioscience) and PMA/ionomycin (50 ng/ml and 1 uM) dor 3.5 hours, adding Brefeldin A and Monensin (eBioscience) for the last hour. Cells were subsequently stained for viability using the viability dyes eFluor 506, (eBioscience) according to the provided protocol. After surface marker staining with the following antibodies (all at 1:100 dilution): CD3-APC-H7 (560176; BD Biosciences), CD8-V450 (560347; BD Biosciences), CD45RA-APC (17-0458; eBioscience), and CCR7-PE-Cy7 (557648; BD Biosciences), cells were permeabilized and fixed using the Foxp3/Transcription Factor Fixation/Permeabilization Concentrate and Diluent kit (eBioscience). Intracellular staining was performed with IFN-γ-PerCP-Cy5.5 antibody (1:100, 560704, BD Bioscience) in FOXP3 perm/wash buffer for 1 h at 4° C. After washing and fixation of the cells in 1% paraformaldehyde/PBS, cells were analyzed by flow cytometry. Final data stems from having gated on CD8hi- and CD8lo-expressing T cells.

Setting [17] is: 10 nM, 48 hours, relative to untreated control.

As for `O=CC[C@@H](O)[C@H](O)[C@H](O)CO` [2-DG, 2-deoxy-D-glucose], in series [1] (50 mM, 24 hours), the “L-lactate production in treated and untreated samples” value is “dramatically reduced L-lactate production”.
On to `Cc1sc2c(c1C)C(c1ccc(Cl)cc1)=N[C@@H](CC(=O)OC(C)(C)C)c1nnc(C)n1-2` [JQ-1], for which the “latency reversal by first-generation LRAs” value in [2] is given as “only minimal latency reversal”.
Regarding `CCCCCCCCCCCCCC(=O)O[C@@H]1[C@@H](C)[C@@]2(O)[C@@H](C=C(CO)C[C@]3(O)C(=O)C(C)=C[C@@H]23)[C@@H]2C(C)(C)[C@]12OC(C)=O` [PMA, phorbol 12-myristic13-acetate], in series [3], the “cell viability relative to untreated cells” value is recorded as “clear toxicity; also recorded: toxicity was observed”.
For the compound `CC(C)n1nc(-c2cc3cc(O)ccc3[nH]2)c2c(N)ncnc21` [PP242], the “effect of co-treatment on tideglusib-mediated p65 nuclear translocation” value in series [4] is listed as “less reduction in nuclear translocation”. Also, the “GLUT1 surface expression over the untreated control” value in [5] was “did not significantly alter expression of GLUT1”.
Regarding `Cn1cc(C2=C(c3ccc(Cl)cc3Cl)C(=O)NC2=O)c2ccccc21` [SB-216763, 3-(2,4-Dichlorophenyl)-4-(1-methyl-1H-indol-3-yl)-1H-pyrrole-2,5-dione], the “surface expression of the activation markers CD69 or CD25” value in series [6] was “no increase”. For the same compound, the “CD4+ T-cell viability” value in [7] is “does not reduce viability”. Also, in series [2] (doses between 100-1000 nM), the “induction of the GFP reporter over unstimulated” value is 90 fold. The “L-lactate in the culture media” value in series [1] (24 hours of treatment) is reported as “did not result in an increase of L-lactate”. In [8] (at equivalent doses), the “latency reversing activity, in words” value is listed as “comparable activity”. The “subjects that did not respond” value in [8] (highest dose) is recorded as […]. Besides, the “virus-associated HIV-1 mRNA, mean fold-change” value in series [9] is given as […]. In [10], the “production and release of pro-inflammatory cytokines” value is recorded as “does not induce T cell activation or cytokine production”. The IC50 in series [11] was […]. For the same compound, the “toxicity based on cell-titer blue testing” value in series [12] is recorded as “Neither tideglusib nor SB216763 induced toxicity”.
In the case of `CCOC(=O)C1=C(N)Oc2ccc(Cl)cc2C1C(C#N)C(=O)OCC` (stereo not drawn) [SC79, 2-amino-6-chloro-α-cyano-3-(ethoxycarbonyl)-4H-1-benzopyran-4-acetic acid ethyl ester], the “release of virions in the culture supernatant” value in series [9] (48 hours, CD4+ T cells from five HIV-positive participants, SC79 10/100/1000 nM) is “increased release of virions”.
Consider `CCC/C=C/C=C/C(=O)O[C@H]1/C(=C/C(=O)OC)C[C@H]2C[C@H]([C@@H](C)O)OC(=O)C[C@H](O)C[C@@H]3C[C@H](OC(C)=O)C(C)(C)[C@](O)(C[C@@H]4C/C(=C/C(=O)OC)C[C@H](/C=C/C(C)(C)[C@]1(O)O2)O4)O3` [bryostatin-1], for which the CD69 surface expression result in [6] (10 nM) is reported as “markedly increased”. Besides, the “CD4+ T-cell viability” value in series [7] is “minimal decrease”. In addition, the “latency reversal by first-generation LRAs” value in series [2] is “only minimal latency reversal”. Also, in [9] (setting [17]), the “virus-associated HIV-1 mRNA, mean fold-change” value came out at 574.4 fold and the “virus-associated HIV-1 mRNA, median value” came out at 5.086 fold. The “production and release of pro-inflammatory cytokines” value in [10] was “release of IFN-γ, IL-6, IL-13”. Also, in series [13], the “activation marker expression with known latency-reversing agent” value is “increase in activation marker expression”.
For `Cc1[nH]c2ccccc2c1CCNCc1ccc(/C=C/C(=O)NO)cc1` [panobinostat], the “toxicity of known latency-reversing agent” value in series [14] was “highly toxic”. In addition, the “reduction of total NK cells” value in [15] is “approximately 60%”. Moreover, the “reduction of total CD8+ T cells” value in series [16] is given as “approximately 40%”. Also, the “cell death of CD4+ T cells” value in series [7] (50 nM) is listed as about 50%.

(Values after patent publication US11590110B2, “Compositions and methods for reactivating latent immunodeficiency virus using a GSK-3 inhibitor” (priority 2017, dated 2023).)
